ChEMBL document CHEMBL4020788, “Synthesis, SAR and molecular docking studies of benzo[d]thiazole-hydrazones as potential antibacterial and antifungal agents” (2017)
Calls of active or inactive are those of the source. No cut-off for these calls is given here.

What was measured:
Format in all cases: functional
Escherichia coli [1] = experiment: Antibacterial activity against Escherichia coli at 50 ug/ml after 24 hrs by agar well diffusion method; conditions: read-out: DIZ
Fusarium oxysporum [2] = experiment: Antifungal activity against Fusarium oxysporum at 100 ug/ml after 48 hrs by agar well diffusion method; conditions: read-out: DIZ
Fusarium oxysporum [3] = experiment: Antifungal activity against Fusarium oxysporum at 25 ug/ml after 48 hrs by agar well diffusion method
Fusarium verticillioides [4] = experiment: Antifungal activity against Fusarium moniliforme at 100 ug/ml after 48 hrs by agar well diffusion method; conditions: read-out: DIZ
Fusarium verticillioides [5] = experiment: Antifungal activity against Fusarium moniliforme at 25 ug/ml after 48 hrs by agar well diffusion method; conditions: read-out: DIZ
Staphylococcus aureus [6] = experiment: Antibacterial activity against methicillin resistant Staphylococcus aureus MRSA090 at 25 ug/ml after 24 hrs by agar well diffusion method; conditions: MRSA090, 24 h, read-out: DIZ
Staphylococcus aureus [7] = experiment: Antibacterial activity against Staphylococcus aureus at 50 ug/ml after 24 hrs by agar well diffusion method
Fusarium verticillioides [8] = experiment: Antifungal activity against Fusarium moniliforme at 50 ug/ml after 48 hrs by agar well diffusion method; conditions: read-out: DIZ
Klebsiella pneumoniae [9] = experiment: Antibacterial activity against Klebsiella pneumoniae at 100 ug/ml after 24 hrs by agar well diffusion method; conditions: read-out: DIZ
Staphylococcus aureus [10] = experiment: Antibacterial activity against Staphylococcus aureus at 75 ug/ml after 24 hrs by agar well diffusion method
Klebsiella pneumoniae [11] = experiment: Antibacterial activity against Klebsiella pneumoniae at 50 ug/ml after 24 hrs by agar well diffusion method; conditions: read-out: DIZ
Aspergillus niger [12] = experiment: Antifungal activity against Aspergillus niger at 75 ug/ml after 48 hrs by agar well diffusion method; conditions: read-out: DIZ
Aspergillus niger [13] = experiment: Antifungal activity against Aspergillus niger at 100 ug/ml after 48 hrs by agar well diffusion method; conditions: read-out: DIZ
Bacillus subtilis [14] = experiment: Antibacterial activity against Bacillus subtilis at 75 ug/ml after 24 hrs by agar well diffusion method; conditions: read-out: DIZ
Fusarium oxysporum [15] = experiment: Antifungal activity against Fusarium oxysporum at 75 ug/ml after 48 hrs by agar well diffusion method
Escherichia coli [16] = experiment: Antibacterial activity against Escherichia coli at 75 ug/ml after 24 hrs by agar well diffusion method; conditions: read-out: DIZ
Bacillus subtilis [17] = experiment: Antibacterial activity against Bacillus subtilis at 25 ug/ml after 24 hrs by agar well diffusion method; conditions: read-out: DIZ
Bacillus subtilis [18] = experiment: Antibacterial activity against Bacillus subtilis at 100 ug/ml after 24 hrs by agar well diffusion method; conditions: read-out: DIZ
Staphylococcus aureus [19] = experiment: Antibacterial activity against Staphylococcus aureus at 25 ug/ml after 24 hrs by agar well diffusion method
Fusarium oxysporum [20] = experiment: Antifungal activity against Fusarium oxysporum at 50 ug/ml after 48 hrs by agar well diffusion method
Staphylococcus aureus [21] = experiment: Antibacterial activity against methicillin resistant Staphylococcus aureus MRSA090 at 50 ug/ml after 24 hrs by agar well diffusion method; conditions: MRSA090, 24 h, read-out: DIZ
Escherichia coli [22] = experiment: Antibacterial activity against Escherichia coli at 100 ug/ml after 24 hrs by agar well diffusion method; conditions: read-out: DIZ
Klebsiella pneumoniae [23] = experiment: Antibacterial activity against Klebsiella pneumoniae at 25 ug/ml after 24 hrs by agar well diffusion method; conditions: read-out: DIZ
Escherichia coli [24] = experiment: Antibacterial activity against Escherichia coli at 25 ug/ml after 24 hrs by agar well diffusion method; conditions: read-out: DIZ
Aspergillus niger [25] = experiment: Antifungal activity against Aspergillus niger at 50 ug/ml after 48 hrs by agar well diffusion method; conditions: read-out: DIZ
Staphylococcus aureus [26] = experiment: Antibacterial activity against Staphylococcus aureus at 100 ug/ml after 24 hrs by agar well diffusion method
Fusarium verticillioides [27] = experiment: Antifungal activity against Fusarium moniliforme at 75 ug/ml after 48 hrs by agar well diffusion method; conditions: read-out: DIZ
Staphylococcus aureus [28] = experiment: Antibacterial activity against methicillin resistant Staphylococcus aureus MRSA090 at 100 ug/ml after 24 hrs by agar well diffusion method; conditions: MRSA090, 24 h, read-out: DIZ
Klebsiella pneumoniae [29] = experiment: Antibacterial activity against Klebsiella pneumoniae at 75 ug/ml after 24 hrs by agar well diffusion method; conditions: read-out: DIZ
Aspergillus niger [30] = experiment: Antifungal activity against Aspergillus niger at 25 ug/ml after 48 hrs by agar well diffusion method; conditions: read-out: DIZ
Bacillus subtilis [31] = experiment: Antibacterial activity against Bacillus subtilis at 50 ug/ml after 24 hrs by agar well diffusion method; conditions: read-out: DIZ
Staphylococcus aureus [32] = experiment: Antibacterial activity against methicillin resistant Staphylococcus aureus MRSA090 at 75 ug/ml after 24 hrs by agar well diffusion method; conditions: MRSA090, 24 h, read-out: DIZ

`COc1ccc(/C=N/Nc2nc3cccc(C)c3s2)cc1Br` was tested, and the zone of inhibition at 50 µg/mL (Escherichia coli [1]) was 9 mm, the zone of inhibition at 100 µg/mL (Fusarium oxysporum [2]) was 10 mm and the “diameter of the inhibition zone (DIZ)” value (Fusarium oxysporum [3]) was “inactive”. For the same compound, the zone of inhibition at 100 µg/mL (Fusarium verticillioides [4]) was 17 mm, the zone of inhibition at 25 µg/mL (Fusarium verticillioides [5]) was 7 mm and the zone of inhibition at 25 µg/mL (Staphylococcus aureus [6]) was 8 mm. For the same compound, the “diameter of the inhibition zone (DIZ)” value (Staphylococcus aureus [7]) was “inactive”, the zone of inhibition at 50 µg/mL (Fusarium verticillioides [8]) was 11 mm and the zone of inhibition at 100 µg/mL (Klebsiella pneumoniae [9]) was 16 mm. The “diameter of the inhibition zone (DIZ)” value (Staphylococcus aureus [10]) was “inactive”, the zone of inhibition at 50 µg/mL (Klebsiella pneumoniae [11]) was 11 mm and the zone of inhibition at 75 µg/mL (Aspergillus niger [12]) was 14 mm. The zone of inhibition at 100 µg/mL (Aspergillus niger [13]) was 18 mm, the zone of inhibition at 75 µg/mL (Bacillus subtilis [14]) was 11 mm and the “diameter of the inhibition zone (DIZ)” value (Fusarium oxysporum [15]) was “inactive”. It also gave a zone of inhibition at 75 µg/mL (Escherichia coli [16]) of 13 mm, a zone of inhibition at 25 µg/mL (Bacillus subtilis [17]) of 4 mm and a zone of inhibition at 100 µg/mL (Bacillus subtilis [18]) of 16 mm. For the same compound, the “diameter of the inhibition zone (DIZ)” value (Staphylococcus aureus [19]) was “inactive”, the “diameter of the inhibition zone (DIZ)” value (Fusarium oxysporum [20]) was “inactive” and the zone of inhibition at 50 µg/mL (Staphylococcus aureus [21]) was 12 mm. It also gave a zone of inhibition at 100 µg/mL (Escherichia coli [22]) of 16 mm, a zone of inhibition at 25 µg/mL (Klebsiella pneumoniae [23]) of 7 mm and a zone of inhibition at 25 µg/mL (Escherichia coli [24]) of 7 mm. For the same compound, the zone of inhibition at 50 µg/mL (Aspergillus niger [25]) was 11 mm, the “diameter of the inhibition zone (DIZ)” value (Staphylococcus aureus [26]) was “inactive” and the zone of inhibition at 75 µg/mL (Fusarium verticillioides [27]) was 13 mm. For the same compound, the zone of inhibition at 100 µg/mL (Staphylococcus aureus [28]) was 18 mm, the zone of inhibition at 75 µg/mL (Klebsiella pneumoniae [29]) was 14 mm and the zone of inhibition at 25 µg/mL (Aspergillus niger [30]) was 8 mm. For the same compound, the zone of inhibition at 50 µg/mL (Bacillus subtilis [31]) was 8 mm and the zone of inhibition at 75 µg/mL (Staphylococcus aureus [32]) was 16 mm.
